US20230279025A1, “KRAS G12D INHIBITORS” (Mirati Therapeutics, Inc., priority 2020, published 2023)

Experiments:
[1] = target: T1, KRas G12D (Homo sapiens (Human), UniProt P01116, G12D); assay: KRas G12D Binding Assay (TR-FRET displacement of Cy5 labelled tracer); conditions: GDP-loaded KRAS G12D (amino acids 1:169), 60 minute incubation at 22° C.
Description: After a 60 minute incubation at 22° C., the reaction was measured using a PerkinElmer EnVision multimode plate reader via TR-FRET dual wavelength detection, and the percent of control (POC) calculated using a ratiometric emission factor. […] The POC values were fit to a 4-parameter logistic curve and the IC50 value was determined as the concentration where the curve crosses 50 POC.
ND stands for “not determined.”
Target sequence in this assay (P01116 other isoform, or with tags, fused parts or gaps G12D): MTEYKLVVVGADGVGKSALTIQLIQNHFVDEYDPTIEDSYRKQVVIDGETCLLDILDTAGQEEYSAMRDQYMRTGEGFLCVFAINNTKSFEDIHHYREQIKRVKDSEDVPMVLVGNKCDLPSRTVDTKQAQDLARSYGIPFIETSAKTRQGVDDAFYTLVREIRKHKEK

[2] = target: T1, KRas G12D; assay: KRas G12D Surface Plasmon Resonance (SPR) Binding Assay; conditions: Biacore T200, immobilized biotinylated KRAS protein, 1:1 binding model
Description: Briefly, 1L of 1.05X HBS-Mg buffer (262.5 mM Bioultra Hepes, pH 7.5, 157.5 mM NaCl, 105 mM MgCl2, 0.525 mM TCEP, 0.0305% Brij-35) was prepared and filter sterilized using a 0.22 μm bottle top filter. Approximately 50 mL of 1.05X HBS-Mg buffer was removed and saved for future dilutions. A 50 mL aliquot of DMSO (Sigma Aldrich DMSO Lot. #SHBK2079) was added and continued to stir for 10 minutes, creating the final 1.0X HBS-Mg buffer (250 mM Bioultra Hepes pH 7.5, 150 mM NaCl, 100 mM MgCl2, 0.5 mM TCEP, 0.03% Brij-35).
Biacore T200 instrument was primed using 1.0X HBS-Mg buffer before docking a GE Streptavidin (SA) chip and then primed two additional times prior to beginning the immobilization step. All immobilized protein mixtures were created using 3-5 mg/mL Biotinylated Avidin-tagged KRAS protein using the following immobilization settings: SA chip type, 1 flow cells per cycle, 720 second contact time, and 5 ul/min flow rate. Normalization of the detector was also performed during the immobilization step using the GE BiaNormalize solution.
All compounds were diluted to 10 mM in 100% DMSO prior to being diluted 20X in 1.05X buffer. Another 10X dilution was created using 1.0X buffer prior to performing a series of 3X dilutions to create a compound concentration curve using the following assay settings: 20C analysis temperature, General Settings=10 Hz data collection rate and multi-detection; Assay Steps=all set to LMW kinetics; Cycle Types=LMW kinetics (60 s contact time, 120 s dissociation time, 100 ul/min flow rate, extra wash after injection with 50% DMSO, flow path 1,2,3,4); Flow path detection=2-1, 4-3). Data evaluation was performed using the Biacore T200 Evaluation software and data fit to 1:1 binding model. ND=not determined.
Target sequence in this assay (P01116-2 other isoform, or with tags, fused parts or gaps G12D): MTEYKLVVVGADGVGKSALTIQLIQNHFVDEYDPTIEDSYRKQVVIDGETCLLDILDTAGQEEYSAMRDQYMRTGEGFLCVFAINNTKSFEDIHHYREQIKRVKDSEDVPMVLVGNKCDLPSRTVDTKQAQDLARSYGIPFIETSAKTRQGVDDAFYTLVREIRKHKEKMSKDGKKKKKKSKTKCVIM

Row | SMILES | IC50 [1] | Kd [2]
1 | OC[C@@H]1CCCN1c1nc(N2C[C@H]3CC[C@@H](C2)N3)c2cnc(-c3cc(O)cc4ccccc34)c(F)c2n1 [Example 77, 4-(4-((1R,5S)-3,8-diazabicyclo[3.2.1]octan-3-yl)-8-fluoro-2-((S)-2-(hydroxymethyl)pyrrolidin-1-yl)pyrido[4,3-d]pyrimidin-7-yl)naphthalen-2-ol] | 3140 nM | 3070 nM
2 | Fc1c(-c2cccc3cccc(Cl)c23)ncc2c(N3C[C@H]4CC[C@@H](C3)N4)nc(OCC34CCCCN3CCC4)nc12 (stereo partly drawn) [Example 54, 4-((1R,5S)-3,8-diazabicyclo[3.2.1]octan-3-yl)-7-(8-chloronaphthalen-1-yl)-8-fluoro-2-((hexahydroindolizin-8a(1H)-yl)methoxy)pyrido[4,3-d]pyrimidine] | 68.7 nM | 118 nM
3 | CN1CCC[C@H]1COc1nc(N2C[C@H]3CC[C@@H](C2)N3)c2cnc(-c3cccc4cccc(Cl)c34)cc2n1 [Example 123, 4-((1R,5S)-3,8-diazabicyclo[3.2.1]octan-3-yl)-7-(8-chloronaphthalen-1-yl)-2-(((S)-1-methylpyrrolidin-2-yl)methoxy)pyrido[4,3-d]pyrimidine] | 754 nM | 786 nM
4 | OCC(CO)COc1nc(N2C[C@H]3CC[C@@H](C2)N3)c2cnc(-c3cccc4cccc(Cl)c34)c(F)c2n1 [Example 35, 2-(((4-((1R,5S)-3,8-diazabicyclo[3.2.1]octan-3-yl)-7-(8-chloronaphthalen-1-yl)-8-fluoropyrido[4,3-d]pyrimidin-2-yl)oxy)methyl)propane-1,3-diol] | 475 nM | 1380 nM
5 | Cn1ccnc1CCOc1nc(N2C[C@H]3CC[C@@H](C2)N3)c2cnc(-c3cccc4ccccc34)c(F)c2n1 [Example 94, 4-((1R,5S)-3,8-diazabicyclo[3.2.1]octan-3-yl)-8-fluoro-2-(2-(1-methyl-1H-imidazol-2-yl)ethoxy)-7-(naphthalen-1-yl)pyrido[4,3-d]pyrimidine] | 3650 nM | 7460 nM
6 | Cn1cnc(COc2nc(N3C[C@H]4CC[C@@H](C3)N4)c3cnc(-c4cc(O)cc5ccccc45)c(F)c3n2)c1 [Example 9, 4-(4-((1R,5S)-3,8-diazabicyclo[3.2.1]octan-3-yl)-8-fluoro-2-((1-methyl-1H-imidazol-4-yl)methoxy)pyrido[4,3-d]pyrimidin-7-yl)naphthalen-2-ol] | 821 nM | 259 nM
7 | CN1CCC[C@H]1COc1nc(N2C[C@H]3CC[C@@H](C2)N3)c2cnc(-c3cccc4cccc(Cl)c34)c(F)c2n1 [Example 132, 4-((1R,5S)-3,8-diazabicyclo[3.2.1]octan-3-yl)-7-(8-chloronaphthalen-1-yl)-8-fluoro-2-(((S)-1-methylpyrrolidin-2-yl)methoxy)pyrido[4,3-d]pyrimidine] | 60.5 nM | 64.7 nM
8 | Oc1cc(-c2ncc3c(N4C[C@H]5CC[C@@H](C4)N5)nc(OCCc4ccc(F)cn4)nc3c2F)c2ccccc2c1 [Example 102, 4-(4-((1R,5S)-3,8-diazabicyclo[3.2.1]octan-3-yl)-8-fluoro-2-(2-(5-fluoropyridin-2-yl)ethoxy)pyrido[4,3-d]pyrimidin-7-yl)naphthalen-2-ol] | 95.8 nM | 259 nM
9 | Oc1cc(-c2ncc3c(N4C[C@H]5CC[C@@H](C4)N5)nc(OCCc4ccccc4F)nc3c2F)c2ccccc2c1 [Example 67, 4-(4-((1R,5S)-3,8-diazabicyclo[3.2.1]octan-3-yl)-8-fluoro-2-(2-fluorophenethoxy)pyrido[4,3-d]pyrimidin-7-yl)naphthalen-2-ol] | 1250 nM | 1150 nM
10 | CCCOc1nc(N2C[C@H]3CC[C@@H](C2)N3)c2cnc(-c3cc(O)cc4ccccc34)c(F)c2n1 [Example 47, 4-(4-((1R,5S)-3,8-diazabicyclo[3.2.1]octan-3-yl)-8-fluoro-2-propoxypyrido[4,3-d]pyrimidin-7-yl)naphthalen-2-ol] | 265 nM | 510 nM
11 | Oc1cc(-c2ncc3c(N4C[C@H]5CC[C@@H](C4)N5)nc(OCc4cccnc4)nc3c2F)c2ccccc2c1 [Example 99, 4-(4-((1R,5S)-3,8-diazabicyclo[3.2.1]octan-3-yl)-8-fluoro-2-(pyridin-3-ylmethoxy)pyrido[4,3-d]pyrimidin-7-yl)naphthalen-2-ol] | 624 nM | 897 nM
12 | Oc1cc(-c2ncc3c(N4C[C@H]5CC[C@@H](C4)N5)nc(N4CC5(CCOC5)C4)nc3c2F)c2ccccc2c1 [Example 76, 4-(4-((1R,5S)-3,8-diazabicyclo[3.2.1]octan-3-yl)-8-fluoro-2-(6-oxa-2-azaspiro[3.4]octan-2-yl)pyrido[4,3-d]pyrimidin-7-yl)naphthalen-2-ol] | 131 nM | 197 nM
13 | Oc1cc(-c2ncc3c(N4C[C@H]5CC[C@@H](C4)N5)nc(N4CC5(CCOCC5)C4)nc3c2F)c2ccccc2c1 [Example 74, 4-(4-((1R,5S)-3,8-diazabicyclo[3.2.1]octan-3-yl)-8-fluoro-2-(7-oxa-2-azaspiro[3.5]nonan-2-yl)pyrido[4,3-d]pyrimidin-7-yl)naphthalen-2-ol] | 188 nM | 141 nM
14 | CN1CCC[C@H]1COc1nc(N2C[C@H]3CC[C@@H](C2)N3)c2cnc(-c3cccc4ccccc34)c(F)c2n1 [Example 20, 4-((1R,5S)-3,8-diazabicyclo[3.2.1]octan-3-yl)-8-fluoro-2-(((S)-1-methylpyrrolidin-2-yl)methoxy)-7-(naphthalen-1-yl)pyrido[4,3-d]pyrimidine] | 692 nM | 967 nM
15 | OC[C@@H](O)COc1nc(N2C[C@H]3CC[C@@H](C2)N3)c2cnc(-c3cccc4cccc(Cl)c34)c(F)c2n1 [Example 56, (R)-3-((4-((1R,5S)-3,8-diazabicyclo[3.2.1]octan-3-yl)-7-(8-chloronaphthalen-1-yl)-8-fluoropyrido[4,3-d]pyrimidin-2-yl)oxy)propane-1,2-diol] | 5920 nM | 5170 nM
16 | Fc1c(-c2cccc3cccc(Cl)c23)ncc2c(N3C[C@H]4CC[C@@H](C3)N4)nc(OCC3COC3)nc12 [Example 53, 4-((1R,5S)-3,8-diazabicyclo[3.2.1]octan-3-yl)-7-(8-chloronaphthalen-1-yl)-8-fluoro-2-(oxetan-3-ylmethoxy)pyrido[4,3-d]pyrimidine] | 1880 nM | 4370 nM
17 | C[C@H](CN(C)C)Oc1nc(N2C[C@H]3CC[C@@H](C2)N3)c2cnc(-c3cc(O)cc4ccccc34)c(F)c2n1 [Example 17, 4-(4-((1R,5S)-3,8-diazabicyclo[3.2.1]octan-3-yl)-2-(((R)-1-(dimethylamino)propan-2-yl)oxy)-8-fluoropyrido[4,3-d]pyrimidin-7-yl)naphthalen-2-ol] | 666 nM | 2210 nM
18 | Oc1cc(-c2ncc3c(N4C[C@H]5CC[C@@H](C4)N5)nc(OCCN4CCOCC4)nc3c2F)c2ccccc2c1 [Example 25, 4-(4-((1R,5S)-3,8-diazabicyclo[3.2.1]octan-3-yl)-8-fluoro-2-(2-morpholinoethoxy)pyrido[4,3-d]pyrimidin-7-yl)naphthalen-2-ol] | 338 nM | 270 nM
19 | Oc1cc(-c2ncc3c(N4C[C@H]5CC[C@@H](C4)N5)nc(OCC(F)(F)F)nc3c2F)c2ccccc2c1 [Example 48, 4-(4-((1R,5S)-3,8-diazabicyclo[3.2.1]octan-3-yl)-8-fluoro-2-(2,2,2-trifluoroethoxy)pyrido[4,3-d]pyrimidin-7-yl)naphthalen-2-ol] | 434 nM | 931 nM
20 | Cc1cccc(CCOc2nc(N3C[C@H]4CC[C@@H](C3)N4)c3cnc(-c4cc(O)cc5ccccc45)c(F)c3n2)n1 [Example 87, 4-(4-((1R,5S)-3,8-diazabicyclo[3.2.1]octan-3-yl)-8-fluoro-2-(2-(6-methylpyridin-2-yl)ethoxy)pyrido[4,3-d]pyrimidin-7-yl)naphthalen-2-ol] | 536 nM | 196 nM
21 | Fc1ccc2cccc(-c3ncc4c(N5C[C@H]6CC[C@@H](C5)N6)nc(OCCc5cccnc5)nc4c3F)c2c1 [Example 90, 4-((1R,5S)-3,8-diazabicyclo[3.2.1]octan-3-yl)-8-fluoro-7-(7-fluoronaphthalen-1-yl)-2-(2-(pyridin-3-yl)ethoxy)pyrido[4,3-d]pyrimidine] | 4490 nM | 7810 nM
22 | Cn1ccnc1CCOc1nc(N2C[C@H]3CC[C@@H](C2)N3)c2cnc(-c3cc(O)cc4ccccc34)c(F)c2n1 [Example 3, 4-(4-((1R,5S)-3,8-diazabicyclo[3.2.1]octan-3-yl)-8-fluoro-2-(2-(1-methyl-1H-imidazol-2-yl)ethoxy)pyrido[4,3-d]pyrimidin-7-yl)naphthalen-2-ol] | 9.5 nM | 8.3 nM
